Assay results: ChEMBL document CHEMBL1154291, “Synthesis and SAR of 2-phenyl-1-sulfonylaminocyclopropane carboxylates as ADAMTS-5 (Aggrecanase-2) inhibitors” (Bioorg Med Chem Lett, 2009)

Assays:
[1] = target: T1, A disintegrin and metalloproteinase with thrombospondin motifs 5 (Homo sapiens, UniProt Q9UNA0); assay: Inhibition of ADAMTS5
T1 sequence (Q9UNA0 whole entry): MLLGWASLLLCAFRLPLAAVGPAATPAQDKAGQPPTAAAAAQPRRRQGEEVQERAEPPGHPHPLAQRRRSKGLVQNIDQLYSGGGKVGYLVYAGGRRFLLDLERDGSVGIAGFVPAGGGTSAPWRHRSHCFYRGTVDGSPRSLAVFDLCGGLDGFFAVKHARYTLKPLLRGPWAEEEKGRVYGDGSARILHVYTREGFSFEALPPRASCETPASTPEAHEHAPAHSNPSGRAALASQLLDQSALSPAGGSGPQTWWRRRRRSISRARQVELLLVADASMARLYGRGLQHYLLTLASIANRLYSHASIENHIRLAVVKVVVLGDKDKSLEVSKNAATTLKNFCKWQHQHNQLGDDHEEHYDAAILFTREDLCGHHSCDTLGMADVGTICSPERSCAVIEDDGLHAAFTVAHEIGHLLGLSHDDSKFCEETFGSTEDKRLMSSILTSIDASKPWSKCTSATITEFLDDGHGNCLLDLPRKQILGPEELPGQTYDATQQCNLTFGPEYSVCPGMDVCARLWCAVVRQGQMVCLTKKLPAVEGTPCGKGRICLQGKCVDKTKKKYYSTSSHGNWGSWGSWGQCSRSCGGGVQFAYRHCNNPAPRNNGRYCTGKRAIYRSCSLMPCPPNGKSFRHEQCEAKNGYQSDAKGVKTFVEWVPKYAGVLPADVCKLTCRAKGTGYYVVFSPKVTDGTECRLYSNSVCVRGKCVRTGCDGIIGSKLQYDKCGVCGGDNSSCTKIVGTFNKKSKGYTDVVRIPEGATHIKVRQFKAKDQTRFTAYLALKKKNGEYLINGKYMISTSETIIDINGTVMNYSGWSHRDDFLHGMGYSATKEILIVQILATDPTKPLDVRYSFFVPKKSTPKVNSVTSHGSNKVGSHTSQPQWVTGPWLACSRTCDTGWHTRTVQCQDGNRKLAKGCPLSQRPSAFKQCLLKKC

[2] = target: T2, A disintegrin and metalloproteinase with thrombospondin motifs 5 (Homo sapiens) (UniProt Q9UNA0); assay: Inhibition of ADAMTS5 at 1 uM
T2 sequence (whole entry): T1 sequence (Q9UNA0 whole entry)

[3] = target: T2, A disintegrin and metalloproteinase with thrombospondin motifs 5 (Homo sapiens); assay: Inhibition of ADAMTS5 at 0.3 uM
Interstitial collagenase = target: T3, Interstitial collagenase (Homo sapiens, UniProt P03956); assay: Inhibition of MMP-1
T3 sequence (P03956 whole entry): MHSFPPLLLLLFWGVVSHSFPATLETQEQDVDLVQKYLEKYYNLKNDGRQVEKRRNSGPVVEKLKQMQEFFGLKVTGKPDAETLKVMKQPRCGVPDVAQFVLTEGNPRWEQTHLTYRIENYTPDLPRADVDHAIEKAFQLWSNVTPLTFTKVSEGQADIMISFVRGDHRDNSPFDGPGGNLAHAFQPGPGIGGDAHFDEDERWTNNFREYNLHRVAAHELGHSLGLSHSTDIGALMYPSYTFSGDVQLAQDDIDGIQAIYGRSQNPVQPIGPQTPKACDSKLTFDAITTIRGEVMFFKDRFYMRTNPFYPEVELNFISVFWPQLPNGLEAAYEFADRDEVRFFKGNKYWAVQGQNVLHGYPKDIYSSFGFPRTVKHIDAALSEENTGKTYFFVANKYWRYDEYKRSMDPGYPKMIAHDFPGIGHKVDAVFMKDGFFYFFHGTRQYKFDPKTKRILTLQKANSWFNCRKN

[4] = target: Disintegrin and metalloproteinase domain-containing protein 17 (Homo sapiens, UniProt P78536); assay: Inhibition of TACE
[5] = Oral bioavailability in rat; type: ADME, organism-based; settings: in vivo
[6] = Half life in rat; type: ADME, organism-based; settings: in vivo

Sequence of Disintegrin and metalloproteinase domain-containing protein 17 (P78536 whole entry, the tested form may be a part): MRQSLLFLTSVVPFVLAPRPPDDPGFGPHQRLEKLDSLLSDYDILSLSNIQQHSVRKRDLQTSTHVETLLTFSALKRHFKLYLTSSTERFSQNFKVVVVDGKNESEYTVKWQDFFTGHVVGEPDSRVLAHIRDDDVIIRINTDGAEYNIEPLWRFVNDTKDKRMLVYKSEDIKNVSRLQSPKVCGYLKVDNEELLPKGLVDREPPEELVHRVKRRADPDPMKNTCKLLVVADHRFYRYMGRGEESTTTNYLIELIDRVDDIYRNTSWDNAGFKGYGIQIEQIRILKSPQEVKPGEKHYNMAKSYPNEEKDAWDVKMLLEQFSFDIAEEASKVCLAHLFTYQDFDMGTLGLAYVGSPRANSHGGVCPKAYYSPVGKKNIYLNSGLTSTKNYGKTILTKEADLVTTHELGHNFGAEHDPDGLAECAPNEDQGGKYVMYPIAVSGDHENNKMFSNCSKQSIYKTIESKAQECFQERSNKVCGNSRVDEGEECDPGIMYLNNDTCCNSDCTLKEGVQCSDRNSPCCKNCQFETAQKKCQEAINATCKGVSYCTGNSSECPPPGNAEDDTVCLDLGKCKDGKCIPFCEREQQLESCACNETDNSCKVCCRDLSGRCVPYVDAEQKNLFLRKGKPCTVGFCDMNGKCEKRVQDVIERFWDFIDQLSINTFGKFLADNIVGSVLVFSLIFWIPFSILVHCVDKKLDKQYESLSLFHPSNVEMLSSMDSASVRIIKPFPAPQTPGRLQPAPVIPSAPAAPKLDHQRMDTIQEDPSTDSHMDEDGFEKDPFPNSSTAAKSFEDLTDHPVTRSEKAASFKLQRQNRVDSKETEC

Structure (SMILES) | IC50 [1] [nM] | other results
O=C(O)[C@]1(NS(=O)(=O)c2ccc(-c3cccc(Cl)c3)s2)C[C@@H]1c1ccccc1 | 94 | 
O=C(O)[C@]1(NS(=O)(=O)c2ccc(-n3cc(Cl)cn3)s2)CC[C@@H]1c1ccccc1 (racemic) |  | inhibition [2]: -0.84%
C[C@@H]1[C@H](c2ccccc2)[C@]1(NS(=O)(=O)c1ccc(-c2ccc(Cl)cc2)s1)C(=O)O | 21 | 
C[C@]1(c2ccccc2)C[C@@]1(NS(=O)(=O)c1ccc(-n2cc(Cl)cn2)s1)C(=O)O | 32 | 
O=C(O)[C@]1(NS(=O)(=O)c2ccc(-n3cc(Cl)cn3)s2)C[C@@H]1C1CCCCC1 (racemic) | 360 | 
C[C@]1(c2ccccc2)C[C@@]1(NS(=O)(=O)c1ccc(-c2ccc(Cl)cc2)s1)C(=O)O | 10 | 
O=C(O)[C@]1(NS(=O)(=O)c2ccc(-c3ccc(Cl)cn3)s2)C[C@@H]1c1ccccc1 | 100 | 
CC(C)[C@H]1C[C@@]1(NS(=O)(=O)c1ccc(-n2cc(Cl)cn2)s1)C(=O)O (racemic) | 770 | 
C[C@@H]1[C@H](C)[C@]1(NS(=O)(=O)c1ccc(-n2cc(Cl)cn2)s1)C(=O)O | 800 | 
CC1(C)C[C@@]1(NS(=O)(=O)c1ccc(-n2cc(Cl)cn2)s1)C(=O)O (racemic) |  | inhibition [2]: 19.6%
O=C(O)[C@]1(NS(=O)(=O)c2ccc(-c3ccccc3Cl)s2)C[C@@H]1c1ccccc1 |  | inhibition [2]: 48%
O=C(O)[C@@]1(NS(=O)(=O)c2ccc(-c3ccc(Cl)cc3)cc2)C[C@H]1c1ccccc1 | 210 | 
C[C@H]1C[C@@]1(NS(=O)(=O)c1ccc(-n2cc(Cl)cn2)s1)C(=O)O (racemic) |  | inhibition [2]: 3.5%
O=C(O)[C@]1(NS(=O)(=O)c2ccc(-c3ccc(Cl)cc3)s2)C[C@@H]1c1ccccc1 | 60 | 
C[C@H]1[C@H](c2ccccc2)[C@]1(NS(=O)(=O)c1ccc(-c2ccc(Cl)cc2)s1)C(=O)O (racemic) | 120 | 
O=C(O)[C@]1(NS(=O)(=O)c2ccc(-n3cc(Cl)cn3)s2)C[C@@H]1c1ccccc1 | 80 | 
O=C(O)[C@]1(NS(=O)(=O)c2ccc(-c3ccc(Cl)cc3)cc2)C[C@@H]1c1ccccc1 | 84 | 
COC(=O)c1cn(CCN([C@@]2(C(=O)O)C[C@@H]2c2ccccc2)S(=O)(=O)c2ccc(-c3ccc(Cl)cc3)cc2)cn1 |  | inhibition [3]: 18%
O=C(O)[C@]1(NS(=O)(=O)c2ccc(-n3cc(Cl)cn3)s2)C[C@@H]1Cc1ccccc1 (racemic) |  | inhibition [2]: 25%
C[C@@H]1[C@H](c2ccccc2)[C@]1(NS(=O)(=O)c1ccc(-n2cc(Cl)cn2)s1)C(=O)O (racemic) | 7.4 | IC50 (Interstitial collagenase): 180 nM; IC50 [4]: 4000 nM; bioavailability [5]: 81%; half-life [6]: 4.5 h
